Like-named read-outs stand apart in the source and are kept apart here.
How the values were obtained:
TNFα = assay: Cot Monocyte TNFα Cell Based Assay
Human Cot = Human Cot (Homo sapiens (Human), UniProt P41279); assay: High Throughput Cot Biochemical Assay
[1] = read-out: EC50 TNF, LPS-stimulated human monocytes, TNFα
[2] = read-out: IC50 HTRF, Cot HTRF (TR-FRET) biochemical assay
[3] = Homo sapiens, Monocyte, read-out: EC50 TNF, LPS-stimulated human monocytes, TNFα
[4] = IC50 HTRF, Cot HTRF (TR-FRET) biochemical assay

Chain of Human Cot (P41279 30-397): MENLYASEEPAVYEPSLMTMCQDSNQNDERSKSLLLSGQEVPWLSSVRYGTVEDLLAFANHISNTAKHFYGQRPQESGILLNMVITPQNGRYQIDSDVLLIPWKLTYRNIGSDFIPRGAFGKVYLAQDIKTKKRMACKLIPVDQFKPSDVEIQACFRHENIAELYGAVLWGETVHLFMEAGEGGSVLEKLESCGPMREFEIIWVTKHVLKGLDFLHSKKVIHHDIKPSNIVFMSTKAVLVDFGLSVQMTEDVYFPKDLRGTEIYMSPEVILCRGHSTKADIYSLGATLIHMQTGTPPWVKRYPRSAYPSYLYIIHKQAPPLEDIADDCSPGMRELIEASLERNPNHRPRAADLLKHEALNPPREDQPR

Row | EC50 (TNFα; [1]) [nM] | IC50 (Human Cot; [2]) [nM] | EC50 (TNFα; [3]) [nM] | IC50 (Human Cot; [4]) [nM] | SMILES | other results
1 | 194 | 11 | – | – | CCC(F)(F)Cn1cc([C@@H](Nc2cc(Cl)c3ncc(C#N)c(NCC(C)(C)C)c3c2)c2ccc(F)nc2C)nn1 [Example 750, (S)-8-chloro-6-(((1-(2,2-ifluorobutyl)-1H-1,2,3-triazol-4-yl)(6-fluoro-2-methylpyridin-3-yl)methyl)amino)-4-(neopentylamino)quinoline-3-carbonitrile] | –
2 | – | – | 154 | 7 | Cn1cnc2c([C@H](Nc3cc(Cl)c4ncc(C#N)c(NCC(C)(C)C)c4c3)c3cn(C45CC(C4)C5)nn3)cccc2c1=O [Example 728, (S)-6-(((1-(bicyclo[1.1.1]pentan-1-yl)-1H-1,2,3-triazol-4-yl)(3-methyl-4-oxo-3,4-dihydroquinazolin-8-yl)methyl)amino)-8-chloro-4-(neopentylamino)quinoline-3-carbonitrile] | –
3 | 186 | 3 | – | – | CC[C@@H](Nc1c(C#N)cnc2c(Cl)cc(N[C@@H](c3cccnc3)c3cn(C(C)(C)C)nn3)cc12)c1ccccc1 [Example 192, 6-(((S)-(1-(tert-butyl)-1H-1,2,3-triazol-4-yl)(pyridin-3-yl)methyl)amino)-8-chloro-4-(((R)-1-phenylpropyl)arnino)quinoline-3-carbonitrile] | –
4 | – | – | 418 | 10 | Cc1nc(F)ccc1[C@H](Nc1cc(Cl)c2ncc(C#N)c(NCC(C)(C)CC#N)c2c1)c1cn(C2(C(F)F)CC2)nn1 [Example 512, (S)-8-chloro-4-((3-cyano-2,2-dimethyl-propyl)amino)-6-(((1-(1-(difluoromethyl)-cyclopropyl)-1H-1,2,3-triazol-4-yl)(6-fluoro-2-methylpyridin-3-yl)methyl)amino)quinoline-3-carbonitrile] | –

Continued, compound first:

Row | SMILES | EC50 (TNFα; [1]) [nM] | IC50 (Human Cot; [2]) [nM] | EC50 (TNFα; [3]) [nM] | IC50 (Human Cot; [4]) [nM] | other results
5 | CC[C@@H](Nc1c(C#N)cnc2c(F)cc(N[C@@H](c3ccc(F)nc3)c3cn(C4CC4)nn3)cc12)c1ccccc1 [Example 120, 6-(((S)-(-cyclopropyl-1H-1,2,3-triazol-4-yl)(6-fluoropyridin-3-yl)methyl-d)amino)-8-fluoro-4-(((R)-1-phenylpropyl)amino)quinolme-3-carbonitrile] | 137 | 5 | – | – | –
6 | CC(C)(C)CNc1c(C#N)cnc2c(Cl)cc(N[C@H](c3cn(C4CC4)nn3)c3cccn4cncc34)cc12 [Example 446, (S)-8-chloro-6-(((1-cyclopropyl-1H-1,2,3-triazol-4-yl)(imidazo[1,5-a]pyridin-8-yl)methyl)amino)-4-(neopentylamino)-quinoline-3-carbonitrile] | – | – | 156 | 3 | –
7 | [2H][C@](Nc1cc(Cl)c2ncc(C#N)c(Nc3ccc(OC)c(Cl)c3)c2c1)(c1ccc(F)nc1)c1cn(C2CC2)nn1 [Example 96, (S)-8-chloro-4-((3-chloro-4-methoxyphenyl)amino)-6-(((1-cyclopropyl-1H-1,2,3-triazol-4-yl)(6-fluoropyridin-3-yl)methyl-d)amino)quinoline-3-carbonitrile] | – | – | 173 | 11 | –
8 | CC(C)(C)CNc1c(C#N)cnc2c(C#N)cc(N[C@H](c3cn(C4(C(F)F)CC4)nn3)c3ccc(F)c4ncccc34)cc12 [Example 671] | 32 | 2 | – | – | –
9 | [2H][C@](Nc1cc(Cl)c2ncc(C#N)c(NC3CCOCC3(C)C)c2c1)(c1ccc(F)nc1)c1cn(C2CC2)nn1 (stereo partly drawn) [Example 92, 8-chloro-6-(((S)-(1-cyclopropyl-1H-1,2,3-triazol-4-yl)(6-fluoropyridin-3-yl)methyl-d)amino)-4-((3,3-dimethyltetrahydro-2H-pyran-4-yl)amino)quinoline-3-carbonitrile] | – | – | 65 | 6 | –
10 | CC(C)(C)CNc1c(C#N)cnc2c(C#N)cc(N[C@@H](c3ccc4cccnc4c3)c3cn(C4(C(F)F)CC4)nn3)cc12 [Example 818, (S)-6-(((1-(1-(difluoromethyl)-cyclopropyl)-1H-1,2,3-triazol-4-yl)(quinolin-7-yl)methyl)amino)-4-(neopentylamino)quinoline-3,8-dicarbonitrile] | – | – | – | – | EC50 (TNFα; Homo sapiens, Monocyte, read-out: EC50 TNF, LPS-stimulated human monocytes, TNFα TR-FRET): 176 nM; IC50 (Human Cot; IC50 HTRF, Cot HTRF (TR-FRET KinEASE) biochemical assay, 400 μM ATP): 6 nM

Source: US11066414B2, “Cot modulators and methods of use thereof” (Gilead Sciences, Inc., priority 2015, dated 2021)
